# Laboratory results taken from US8952024B2, “Herbicidal pyrimidone derivatives” (E I du Pont de Nemours and Company, priority 2009, dated 2015).
# How the values were obtained:
# Assay in all cases: Test B pre-/postemergence plant response
# Format in all cases: in vivo
# [1] = test system: yellow nutsedge (Cyperus esculentus); settings: for Plant response rating, Nutsedge, Yellow: Postemergence
# Procedure, shortened: (§1)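 Visual ratings on a 0–100 scale (100 = complete control) were made versus untreated controls 13–15 days after treatment in a greenhouse. Compounds in surfactant-containing non-phytotoxic solvent were applied preemergence to seeds in loam–sand blend or postemergence to 1- to 4-leaf plants (2–18 cm).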
# [2] = test system: Surinam grass (Brachiaria decumbens); settings: for Plant response rating, Surinam Grass: Postemergence
# Procedure, shortened: as §1
# [3] = test system: johnsongrass (Sorghum halepense); settings: for Plant response rating, Johnsongrass: Postemergence
# Procedure, shortened: as §1
# [4] = test system: downy bromegrass (Bromus tectorum); settings: for Plant response rating, Bromegrass, Downy: Postemergence
# Procedure, shortened: as §1
# [5] = test system: soybean (Glycine max); settings: for Plant response rating, Soybean: Postemergence
# Procedure, shortened: as §1
# [6] = test system: large crabgrass (Digitaria sanguinalis); settings: for Plant response rating, Crabgrass, Large: Postemergence
# Procedure, shortened: as §1
# [7] = test system: lambsquarters (Chenopodium album); settings: for Plant response rating, Lambsquarters: Postemergence
# Procedure, shortened: as §1
# [8] = test system: pigweed (Amaranthus retroflexus); settings: for Plant response rating, Pigweed: Postemergence
# Procedure, shortened: as §1
# [9] = test system: blackgrass (Alopecurus myosuroides); settings: for Plant response rating, Blackgrass: Postemergence
# Procedure, shortened: as §1
# [10] = test system: goosegrass (Eleusine indica); settings: for Plant response rating, Goosegrass: Postemergence
# Procedure, shortened: as §1
# [11] = test system: corn (Zea mays); settings: for Plant response rating, Corn: Postemergence
# Procedure, shortened: as §1
# [12] = test system: woolly cupgrass (Eriochloa villosa); settings: for Plant response rating, Cupgrass, Woolly: Postemergence
# Procedure, shortened: as §1
# [13] = test system: wild oat (Avena fatua); settings: for Plant response rating, Oat, Wild: Postemergence
# Procedure, shortened: as §1
# [14] = test system: velvetleaf (Abutilon theophrasti); settings: for Plant response rating, Velvetleaf: Postemergence
# Procedure, shortened: as §1
# [15] = test system: green foxtail (Setaria viridis); settings: for Plant response rating, Foxtail, Green: Postemergence
# Procedure, shortened: as §1
# [16] = test system: kochia (Kochia scoparia); settings: for Plant response rating, Kochia: Postemergence
# Procedure, shortened: as §1
# [17] = test system: morningglory (Ipomoea coccinea); settings: for Plant response rating, Morningglory: Postemergence
# Procedure, shortened: as §1
# [18] = 62 g ai/ha, postemergence, 0 is no effect, 100 is complete control, 13 to 15 days
# [19] = 31 g ai/ha, 0 to 100 scale (0 no effect, 100 complete control)
# [20] = 125 g ai/ha, scale 0 to 100 (0 no effect, 100 complete control)
# [21] = 250 g ai/ha, scale 0 to 100 (0 no effect, 100 complete control), 13 to 15 days
smiles,measurement,setting,value
O=C1CCCC(O)=C1C(=O)c1cnc(-c2ccccc2)n(C2CCCCCC2)c1=O [Compound 130],"Nutsedge, Yellow plant response rating (0 to 100 scale)",[1]; [18],20
same,"Plant response rating, Nutsedge, Yellow",[1]; [19],10
same,"Plant response rating, Nutsedge, Yellow",[1]; [20],35
same,"Plant response rating, Nutsedge, Yellow",[1]; [21],40
same,Surinam Grass plant response rating (0 to 100 scale),[2]; [18],80
same,"Plant response rating, Surinam Grass",[2]; [19],80
same,"Plant response rating, Surinam Grass",[2]; [20],80
same,"Plant response rating, Surinam Grass",[2]; [21],90
same,Johnsongrass plant response rating (0 to 100 scale),[3]; [18],60
same,"Plant response rating, Johnsongrass",[3]; [19],60
same,"Plant response rating, Johnsongrass",[3]; [20],80
same,"Plant response rating, Johnsongrass",[3]; [21],80
same,"Bromegrass, Downy plant response rating (0 to 100 scale)",[4]; [18],15
same,"Plant response rating, Bromegrass, Downy",[4]; [19],10
same,"Plant response rating, Bromegrass, Downy",[4]; [20],35
same,"Plant response rating, Bromegrass, Downy",[4]; [21],40
same,Soybean plant response rating (0 to 100 scale),[5]; [18],98
same,"Plant response rating, Soybean",[5]; [19],98
same,"Plant response rating, Soybean",[5]; [20],98
same,"Plant response rating, Soybean",[5]; [21],100
same,"Crabgrass, Large plant response rating (0 to 100 scale)",[6]; [18],85
same,"Plant response rating, Crabgrass, Large",[6]; [19],85
same,"Plant response rating, Crabgrass, Large",[6]; [20],95
same,"Plant response rating, Crabgrass, Large",[6]; [21],100
same,Lambsquarters plant response rating (0 to 100 scale),[7]; [18],100
same,"Plant response rating, Lambsquarters",[7]; [19],98
same,"Plant response rating, Lambsquarters",[7]; [20],100
same,"Plant response rating, Lambsquarters",[7]; [21],100
same,Pigweed plant response rating (0 to 100 scale),[8]; [18],98
same,"Plant response rating, Pigweed",[8]; [19],95
same,"Plant response rating, Pigweed",[8]; [20],100
same,"Plant response rating, Pigweed",[8]; [21],100
same,Blackgrass plant response rating (0 to 100 scale),[9]; [18],5
same,"Plant response rating, Blackgrass",[9]; [19],0
same,"Plant response rating, Blackgrass",[9]; [20],5
same,"Plant response rating, Blackgrass",[9]; [21],5
same,Goosegrass plant response rating (0 to 100 scale),[10]; [18],85
same,"Plant response rating, Goosegrass",[10]; [19],85
same,"Plant response rating, Goosegrass",[10]; [20],95
same,"Plant response rating, Goosegrass",[10]; [21],95
same,Corn plant response rating (0 to 100 scale),[11]; [18],60
same,"Plant response rating, Corn",[11]; [19],55
same,"Plant response rating, Corn",[11]; [20],80
same,"Plant response rating, Corn",[11]; [21],80
same,"Cupgrass, Woolly plant response rating (0 to 100 scale)",[12]; [18],85
same,"Plant response rating, Cupgrass, Woolly",[12]; [19],80
same,"Plant response rating, Cupgrass, Woolly",[12]; [20],85
same,"Plant response rating, Cupgrass, Woolly",[12]; [21],90
same,"Oat, Wild plant response rating (0 to 100 scale)",[13]; [18],30
same,"Plant response rating, Oat, Wild",[13]; [19],20
same,"Plant response rating, Oat, Wild",[13]; [20],40
same,"Plant response rating, Oat, Wild",[13]; [21],60
same,Velvetleaf plant response rating (0 to 100 scale),[14]; [18],95
same,"Plant response rating, Velvetleaf",[14]; [19],95
same,"Plant response rating, Velvetleaf",[14]; [20],98
same,"Plant response rating, Velvetleaf",[14]; [21],100
same,"Foxtail, Green plant response rating (0 to 100 scale)",[15]; [18],90
same,"Plant response rating, Foxtail, Green",[15]; [19],90
same,"Plant response rating, Foxtail, Green",[15]; [20],95
same,"Plant response rating, Foxtail, Green",[15]; [21],98
same,Kochia plant response rating (0 to 100 scale),[16]; [18],85
same,"Plant response rating, Kochia",[16]; [19],85
same,"Plant response rating, Kochia",[16]; [20],100
same,"Plant response rating, Kochia",[16]; [21],100
same,Morningglory plant response rating (0 to 100 scale),[17]; [18],95
same,"Plant response rating, Morningglory",[17]; [19],95
same,"Plant response rating, Morningglory",[17]; [20],100
same,"Plant response rating, Morningglory",[17]; [21],100
